This note sets out measurements from patent publication US6492401B1, “N-[(substituted five-membered di- or triaza diunsaturated ring)carbonyl] guanidine derivatives for the treatment of ischemia” (Pfizer, Inc., priority 1998, dated 2002).

The target of the test is T1, human NHE-1 (Homo sapiens, UniProt P19634).
T1 construct: expressed in transfected cells; host or cells: fibroblasts stably expressing human NHE-1 (cell line per Counillon et al., Mol. Pharmacol. 44:1041-1045, 1993)
In words: Measurement of human NHE-1 inhibitory activity (NHE-mediated recovery of intracellular pH after acidification, BCECF fluorescence). In kind it is cell-based. The note with it: fibroblasts stably expressing human NHE-1.

T1 sequence (P19634 whole entry): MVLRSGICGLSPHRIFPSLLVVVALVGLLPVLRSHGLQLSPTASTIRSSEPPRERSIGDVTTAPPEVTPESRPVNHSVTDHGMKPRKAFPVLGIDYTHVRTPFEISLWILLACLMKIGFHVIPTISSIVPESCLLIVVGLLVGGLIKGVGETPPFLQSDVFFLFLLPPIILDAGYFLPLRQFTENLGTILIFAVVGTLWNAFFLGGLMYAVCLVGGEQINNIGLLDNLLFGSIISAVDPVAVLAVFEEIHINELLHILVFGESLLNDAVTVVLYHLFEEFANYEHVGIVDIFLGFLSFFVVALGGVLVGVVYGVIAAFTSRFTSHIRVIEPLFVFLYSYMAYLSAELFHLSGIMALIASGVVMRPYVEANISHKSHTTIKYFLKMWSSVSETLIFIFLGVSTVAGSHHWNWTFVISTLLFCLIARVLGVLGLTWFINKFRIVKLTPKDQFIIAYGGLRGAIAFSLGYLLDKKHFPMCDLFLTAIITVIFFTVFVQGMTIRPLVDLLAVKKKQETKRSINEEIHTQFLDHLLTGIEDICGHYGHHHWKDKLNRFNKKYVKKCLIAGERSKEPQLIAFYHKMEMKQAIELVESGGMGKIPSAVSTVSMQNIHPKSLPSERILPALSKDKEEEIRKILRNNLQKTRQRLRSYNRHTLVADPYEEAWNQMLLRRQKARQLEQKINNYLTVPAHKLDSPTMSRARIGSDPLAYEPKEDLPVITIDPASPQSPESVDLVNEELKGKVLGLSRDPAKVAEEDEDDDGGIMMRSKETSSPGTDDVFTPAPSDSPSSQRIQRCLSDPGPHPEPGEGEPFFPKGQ
Method: Methodologies for measurement of human NHE-1 activity and inhibitor potency are based on those published by Watson et al., Am. J. Physiol., 24:G229-G238, 1991), where NHE-mediated recovery of intracellular pH is measured following intracellular acidification. Thus, fibroblasts stably expressing human NHE-1 (Counillon, L. et al., Mol. Pharmacol., 44:1041-1045 (1993) are plated onto collagen coated 96 well plates (50,000/well) and grown to confluence in growth media (DMEM high glucose, 10% fetal bovine serum, 50 u/ml penicillin and streptomycin). Confluent plates are incubated for 30 min at 37° C. with the pH sensitive fluorescent probe BCECF (5 μM; Molecular Probes, Eugene, Oreg.). BCECF loaded cells are incubated for 30 min at 37° C. in acid loading media (70 mM choline chloride, 50 mM NHCl4, 5 mM KCl, 1 mM MgCl2, 1.8 mM CaCl2, 5 mM glucose, 10 mM HEPES, pH 7.5), and then placed in a Fluorescent Imaging Plate Reader (Molecular Devices, CA). BCECF fluorescence is monitored using excitation and emission wavelengths of 485 nm and 525 nM, respectively. Intracellular acidification is initiated via rapid replacement of acid loading media with recovery media (120 mM NaCl, 5 mM KCl, 1 mM MgCl2, 1.8 mM CaCl2, 5 mM glucose, 10 mM HEPES, pH 7.5)±test compound, and NHE-mediated recovery of intracellular pH is monitored as the subsequent time-dependent increase BCECF fluorescence.

One may read the IC50 as the concentration that gives 50% inhibition. Read a low IC50 as greater potency. Regarding `CC(C)c1ccc(C(=O)NC(=N)N)cc1S(C)(=O)=O` [HOE-642], half-maximal inhibition (IC50) was put at 500 nM.
